In patent US11555036B2, “FGFR4 inhibitor, preparation method therefor and pharmaceutical use thereof” (Abbisko Therapeutics Co., Ltd., priority 2016, dated 2023):

What was measured:
[1] = tested on: Huh7 hepatocellular carcinoma cells; test: FGFR4 cell proliferation experiment, Cell Titer Glo (CTG); assay type: cell-based; conditions: Homo sapiens, Huh-7, 72 h, HuH-7 cells, 3 days; for IC50: concentration leading to absolute half growth inhibition; for EC50: concentration leading to half maximal growth inhibition
Procedure: II. FGFR4 Cell Proliferation Experiment
Cell Titer Glo (CTG) experiment was used in the present invention to evaluate the functional effects of the compounds on cell proliferation. […] Compound-mediated inhibition of cell proliferation/survival was assessed by quantification of cellular ATP levels using CTG reagent (Promega, #G7573). The specific experimental procedure was as follows:
2. 10 μL of medium containing a compound concentration of 10 fold of its final test concentration was added;
3. The dose effect was evaluated by a 5-fold serial dilution of the test compound, starting from 10 μM.
4. After cells incubation for 3 days at 37° C. under 5% CO2, the effect of the inhibitor on cell proliferation was quantified after adding 50 μL of CTG and testing with luminescence.

[2] = target: FGFR4 (Homo sapiens, UniProt P22455); test: FGFR4 Caliper Assay (in vitro biochemical kinase analysis of FGFR4); conditions: read-out: Enzymatic activity FGFR4 IC50
Procedure: I. In Vitro Biochemical Kinase Analysis of FGFR4
FGFR4 Caliper Assay was used in the present invention to determine the inhibitory activities of the compounds against FGFR4. The detailed experimental procedure was as follows.
2. A reaction system is a mixture solution of 50 mM HEPES, pH 7.5, 1 mM DTT, 0.02% Tween 20, 0.02% BSA, 0.6% DMSO, 10 mM beta glycerol phosphate and 10 μM sodium orthovanadate and 16 mM MgCl2.
3. The reaction system was incubated at 30° C. for 40 minutes.
4. The reaction was terminated by adding a stop solution (100 mM HEPES, pH 7.5, 5% DMSO, 0.1% Caliper coating reagent, 10 mM EDTA and 0.015% Brij35).
5. The culture plate with the terminated kinase reaction was transferred to the Caliper LC 3000 workstation to read the data, the phosphorylated and unphosphorylated peptides were separated by using the Caliper microfluid migration shift technique, and the analyte was transferred by allowing a constant buffer flow through the chip, the migration of the substrate peptide was monitored by the labeled fluorescent signal, and the kinase activity was calculated by using the amount of the phosphate-based peptide formed.
6. Finally, IC50 values were determined by non-linear regression analysis of percent inhibition at different compound concentrations.

Chain of FGFR4 (P22455 22-802): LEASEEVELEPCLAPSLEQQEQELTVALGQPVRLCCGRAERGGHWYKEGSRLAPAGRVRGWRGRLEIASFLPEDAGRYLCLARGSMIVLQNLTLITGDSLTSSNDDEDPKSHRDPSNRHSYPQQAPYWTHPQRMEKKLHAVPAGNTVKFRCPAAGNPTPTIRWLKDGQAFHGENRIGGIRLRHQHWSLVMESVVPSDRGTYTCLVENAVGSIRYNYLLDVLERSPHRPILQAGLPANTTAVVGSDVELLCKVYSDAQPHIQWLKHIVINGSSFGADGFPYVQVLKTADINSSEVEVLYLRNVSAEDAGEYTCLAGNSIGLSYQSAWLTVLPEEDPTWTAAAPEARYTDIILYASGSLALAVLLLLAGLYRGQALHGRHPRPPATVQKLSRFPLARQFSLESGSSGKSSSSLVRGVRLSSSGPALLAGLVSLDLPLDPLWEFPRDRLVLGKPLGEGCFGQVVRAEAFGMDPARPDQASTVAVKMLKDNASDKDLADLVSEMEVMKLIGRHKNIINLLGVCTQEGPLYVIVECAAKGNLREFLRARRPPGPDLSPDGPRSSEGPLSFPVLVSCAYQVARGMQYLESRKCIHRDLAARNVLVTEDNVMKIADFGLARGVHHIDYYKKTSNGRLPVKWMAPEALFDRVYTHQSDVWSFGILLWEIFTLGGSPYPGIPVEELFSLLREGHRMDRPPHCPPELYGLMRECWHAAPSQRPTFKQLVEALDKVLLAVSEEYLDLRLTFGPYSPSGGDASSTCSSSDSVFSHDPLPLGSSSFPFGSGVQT

Row | Structure (SMILES) | IC50 [1] | EC50 [1] | IC50 [2]
1 | C=CC(=O)N[C@H]1COC[C@H]1Nc1ncc2cc(-c3c(Cl)c(OC)cc(OC)c3Cl)nc(N3CC(C)OC(C)C3)c2n1 (stereo partly drawn) [Example 690, N-((3R,4S)-4-((6-(2,6-dichloro-3,5-dimethoxyphenyl)-8-(2,6-dimethyl-morpholino)pyrido[3,4-d]pyrimidin-2-yl)amino)tetrahydrofuran-3-yl)acryl-amide] | 12.1 nM | 8.4 nM | 8 nM
2 | C=CC(=O)N[C@H]1CCOC[C@H]1Nc1ncc2cc(-c3c(Cl)c(OC)cc(OC)c3Cl)ncc2n1 [Example 119, N-((3S,4S)-3-((6-(2,6-dichloro-3,5-dimethoxyphenyl)pyrido[3,4-d]pyrimidin-2-yl)amino)tetrahydro-2H-pyran-4-yl)acrylamide] | 457 nM | 78.1 nM | 166 nM
3 | C=CC(=O)Nc1cnn(CCOC)c1-c1cc2cnc(-c3c(Cl)c(OC)cc(OC)c3Cl)cc2cn1 [Example 723, N-(5-(7-(2,6-dichloro-3,5-dimethoxyphenyl)-2,6-naphthyridin-3-yl)-1-(2-methoxyethyl)-1H-pyrazol-4-yl)acrylamide] | 1210 nM | 338 nM | 78.5 nM
4 | C=CC(=O)N[C@H]1COC[C@H]1Nc1ncc2cc(-c3c(Cl)c(OC)cc(OC)c3Cl)nc(NC3CC(F)(F)C3)c2n1 [Example 452, N-((3R,4S)-4-((6-(2,6-dichloro-3,5-di-methoxyphenyl)-8-((3,3-difluorocyclo-butyl)amino)pyrido[3,4-d]pyrimidin-2-yl)amino)tetrahydrofuran-3-yl) acrylamide] | 53.3 nM | 20.3 nM | 42.2 nM
5 | C=CC(=O)N[C@H]1COC[C@H]1Nc1ncc2cc(-c3c(Cl)c(OC)cc(OC)c3Cl)nc(N)c2n1 [Example 765, N-((3R,4S)-4-((8-amino-6-(2,6-di-chloro-3,5-dimethoxyphenyl)pyrido[3,4-d]pyrimidin-2-yl)amino)tetrahydro-furan-3-yl)acrylamide] | 656 nM | 421 nM | 158 nM
6 | C=CC(=O)N[C@H]1COC[C@H]1Nc1ncc2cc(-c3c(Cl)c(OC)cc(OC)c3Cl)nc(NCC(CO)(CO)CO)c2n1 [Example 758, N-((3R,4S)-4-((6-(2,6-dichloro-3,5-dimethoxypehnyl)-8-((3-hydroxy-2,2-bis(hydroxymethyl)propyl)amino)py-rido[3,4-d]pyrimidin-2-yl)amino)tetra-hydrofuran-3-yl)acrylamide] | 9.2 nM | 5.8 nM | 5.9 nM
7 | C=CC(=O)N[C@H]1COC[C@H]1Nc1ncc2cc(-c3c(Cl)c(OC)cc(OC)c3Cl)nc(N3CC(F)(F)C3)c2n1 [Example 663, N-((3R,4S)-4-((6-(2,6-dichloro-3,5-dimethoxyphenyl)-8-(3,3-difluoroaze-tidin-1-yl)pyrido[3,4-d]pyrimidin-2-yl)amino)tetrahydrofuran-3-yl)acryl-amide] | 3.5 nM | 2.3 nM | 4.5 nM
8 | C=CC(=O)N[C@H]1CCOC[C@H]1Nc1ncc2cc(-c3c(F)c(OC)cc(OC)c3F)nc(NC)c2n1 [Example 786, N-((3S,4S)-3-((6-(2,6-difluoro-3,5-dimethoxyphenyl)-8-(methylamino)py-rido[3,4-d]pyrimidin-2-yl)amino)tetra-hydro-2H-pyran-4-yl)acrylamide] | 47.6 nM | 38.4 nM | 17 nM
9 | C=CC(=O)N[C@H]1COC[C@H]1Nc1ncc2cc(-c3c(Cl)c(OC)cc(OC)c3Cl)nc(NCc3cnn(C)c3)c2n1 [Example 459, N-((3R,4S)-4-((6-(2,6-dichloro-3,5-di-methoxyphenyl)-8-(((1-methyl-1H-pyrazol-4-yl)methyl)amino)pyrido[3,4-d]pyrimidin-2-yl)amino)tetrahydro-furan-3-yl)acrylamide] | 58 nM | 23.8 nM | 17.3 nM
10 | C=CC(=O)N[C@H]1CCOC[C@H]1Nc1ncc2cc(-c3c(Cl)c(OC)cc(OC)c3Cl)nc(NCC3CC3)c2n1 [Example 501, N-((3S,4S)-3-((8-((cyclopropylmeth-yl)amino)-6-(2,6-dichloro-3,5-dimeth-oxyphenyl)pyrido[3,4-d]pyrimidin-2-yl)amino)tetrahydro-2H-pyran-4-yl)acrylamide] | 49.9 nM | 17.8 nM | 15.7 nM
11 | C=CC(=O)N[C@H]1COC[C@H]1Nc1ncc2cc(-c3c(Cl)c(OC)cc(OC)c3Cl)nc(NCCCCN(C)C)c2n1 [Example 465, N-((3R,4S)-4-((6-(2,6-dichloro-3,5-di-methoxyphenyl)-8-((4-(dimethylamino)butyl)amino)pyrido[3,4-d]pyrimi-din-2-yl)amino)tetrahydrofuran-3-yl) acrylamide] | – | – | 46.4 nM
12 | C=CC(=O)N[C@H]1COC[C@H]1Nc1ncc2cc(-c3c(Cl)c(OC)cc(OC)c3Cl)nc(N3CC[C@@](C)(O)C3)c2n1 [Example 779, N-((3R,4S)-4-((6-(2,6-dichloro-3,5-dimethoxyphenyl)-8-((R)-3-hydroxy-3-methylpyrrolidin-1-yl)pyrido[3,4-d]pyrimidin-2-yl)amino)tetrahydro-furan-3-yl)acrylamide] | 8.6 nM | 7.5 nM | –
13 | C=CC(=O)N[C@H]1COC[C@H]1Nc1ncc2cc(-c3c(Cl)c(OC)cc(OC)c3Cl)nc(C3CC3)c2n1 [Example 609, N-((3R,4S)-4-((8-cyclopropyl-6-(2,6-dichloro-3,5-dimethoxyphenyl)pyri-do[3,4-d]pyrimidin-2-yl)amino)tetra-hydrofuran-3-yl)acrylamide] | 56.1 nM | 36.6 nM | –
14 | C=CC(=O)N[C@H]1COC[C@H]1Nc1ncc2cc(-c3c(Cl)c(OC)cc(OC)c3Cl)nc(NCC3CCOC3)c2n1 (stereo partly drawn) [Example 439, N-((3R,4S)-4-((6-(2,6-dichloro-3,5-di-methoxyphenyl)-8-(((tetrahydrofuran-3-yl)methyl)amino)pyrido[3,4-d]py-rimidin-2-yl)amino)tetrahydrofuran-3-yl)acrylamide] | – | – | 4.6 nM
15 | C=CC(=O)N[C@H]1COC[C@H]1Nc1ncc2cc(-c3c(Cl)c(OC)cc(OC)c3Cl)nc(N(C)C)c2n1 [Example 436, N-((3R,4S)-4-((6-(2,6-dichloro-3,5-di-methoxyphenyl)-8-(dimethylamino)pyrido[3,4-d]pyrimidin-2-yl)amino)tetrahydrofuran-3-yl)acrylamide] | – | – | > 10000 nM
16 | C=CC(=O)N[C@H]1COC[C@H]1Nc1ncc2cc(-c3c(Cl)c(OC)cc(OC)c3Cl)nc(OCc3cc(OC)cc(OC)c3)c2n1 [Example 755, N-((3R,4S)-4-((6-(2,6-dichloro-3,5-dimethoxyphenyl)-8-((3,5-dimethoxy-benzyl)oxy)pyrido[3,4-d]pyrimidin-2-yl)amino)tetrahydrofuran-3-yl) acrylamide] | – | – | 43 nM
17 | C=CC(=O)N[C@H]1COC[C@H]1Nc1ncc2cc(-c3c(Cl)c(OC)cc(OC)c3Cl)nc(N3CC[C@](C)(O)C3)c2n1 [Example 778, N-((3R,4S)-4-((6-(2,6-dichloro-3,5-dimethoxyphenyl)-8-((S)-3-hydroxy-3-methylpyrrolidin-1-yl)pyrido[3,4-d]py-rimidin-2-yl)amino)tetrahydrofuran-3-yl)acrylamide] | 11.2 nM | 9.5 nM | –
18 | C=CC(=O)N[C@H]1COC[C@H]1Nc1ncc2cc(-c3c(Cl)c(OC)cc(OC)c3Cl)nc(NCCN(C)C)c2n1 [Example 431, N-((3R,4S)-4-((6-(2,6-dichloro-3,5-di-methoxyphenyl)-8-((2-(dimethylami-no)ethyl)amino)pyrido[3,4-d]pyrimi-din-2-yl)amino)tetrahydrofuran-3-yl) acrylamide] | – | – | 519 nM
19 | C=CC(=O)Nc1cccc(C)c1Nc1ncc2cc(-c3c(Cl)c(OC)cc(OC)c3Cl)ccc2n1 [BLU-9931] | 1360 nM | 549 nM | –
20 | [2H]C([2H])([2H])Oc1cc(OC([2H])([2H])[2H])c(Cl)c(-c2cc3cnc(N[C@@H]4COC[C@@H]4NC(=O)C=C)nc3c(NCC3CC3)n2)c1Cl [Example 425, N-((3R,4S)-4-((8-((cyclopropylmeth-yl)amino)-6-(2,6-dichloro-3,5-bis(meth-oxy-d3)phenyl)pyrido[3,4-d]pyrimi-din-2-yl)amino)tetrahydrofuran-3-yl)acrylamide] | – | – | 7.7 nM
21 | C=CC(=O)N[C@H]1COC[C@H]1Nc1ncc2cc(-c3c(F)ccc(OC)c3F)nc(NC)c2n1 [Example 777, N-((3R,4S)-4-((6-(2,6-difluoro-3-meth-oxyphenyl)-8-(methylamino)pyri-do[3,4-d]pyrimidin-2-yl)amino)tetra-hydrofuran-3-yl)acrylamide] | 660 nM | 651 nM | –
22 | C=CC(=O)N[C@H]1COC[C@H]1Nc1ncc2cc(-c3c(Cl)c(OC)cc(OC)c3Cl)nc(NC3CCOCC3)c2n1 [Example 444, N-((3R,4S)-4-((6-(2,6-dichloro-3,5-di-methoxyphenyl)-8-((tetrahydro-2H-pyran-4-yl)amino)pyrido[3,4-d]py-rimidin-2-yl)amino)tetrahydrofuran-3-yl)acrylamide] | – | – | 7 nM
